Laboratory results reported in patent US4209439A, “Stabilization of vinyl resins” (priority 1977, dated 1980).

Legend:
[1] = polarographic oxidation potential (Example 31); format: physicochemical; conditions: 0.5 m.mole/liter; methanol/acetic acid; 35° C.
Description: platinum counter-electrode and calomel electrode with filling by a saturated aqueous solution of lithium chloride.
The measurements were carried out in the following solvent:
90 parts of an 0.1 M solution of lithium perchlorate in methanol, 10 parts of a 0.1 M solution of perchloric acid in acetic acid. square voltage superimposed with constant pulses of +10 millivolts, initial potential: 500 millivolts, scanning voltage: 1000 millivolts in the anode direction, oxidation at the vitreous carbon electrode (speed of rotation: 2000 r.p.m.)

[2] = thermostability of rigid vinyl chloride-vinylidene chloride copolymer, ventilated oven at 210° C.; conditions: 0.15 p.c.r.; Example 29
Description: Rigid copolymer formula vinyl chloride-vinylidene chloride copolymer.
Passage through a ventilated oven at 210° C.
Passage through ventilated oven at 210° C.
Passage in ventilated oven at 210° C.

[3] = migration of stabiliser from PVC into solutions or solvents simulating foods at 50° C.; format: physicochemical
Description: (§1) The technique as regards extraction was the following: using the formula which is given below, a batch of bottles (volume 1 liter, diameter 70 mm, height.perspectiveto.230 mm) was prepared, the said bottles being filled with a liquid simulating the foods. […] The migration of the stabiliser was judged by dosage of the pyridine present in the extractum, using the dosage method which is later described. This pyridine obviously represents the oxidised form of the extracted 1,4-dihydropyridine.
(§2) The stabilisers are measured out in the form of their oxidation product (pyridine).
(§3) The oxidation is made quantitative by adding a few drops of iodine to the solution. The latter is then extracted with chloroform and the chloroform is evaporated to a small residual volume. The solution obtained is then subjected to thin-film chromatography, by comparison with solutions of known concentration of the desired pyridines.
(§4) The sensitivity threshold of this technique is 5 μg/liter.
For justifying the possibility of using the dihydropyridines (I) having a radical R comprising from 9 to 22 carbon atoms in applications concerned with food packaging, other than those applications relating to mineral waters, the extractability of the dihydropyridines by several solutions or solvents having the following composition, by weight, was investigated:
(a) water-sodium chloride: 97-3
(b) water-saccharose: 90-10
(c) water-sodium chloride-acetic acid: 98.5-0.5-1
(d) water-citric acid (solution at pH=5): 98-2
(e) water-acetic acid: 97-3
(f) water-acetic acid: 90-10
(h) water-acetic acid: 50-50

[4] = sublimation at 160° C. for 6 hours under nitrogen; format: physicochemical
Description: A test sample of about 130 mg of the product to be investigated is introduced into a 100 cc beaker. The latter is placed in a 250 cc reactor. The temperature is kept at 160° C. by means of a thermostatically controlled oil bath for 6 hours, the atmosphere of the reactor being inert (nitrogen) in order to avoid the oxidation of the 1,4-dihydropyridine into pyridine, which is more sublimable.
For each dihydropyridine derivative which is investigated, the result is expressed as a percentage of sublimed product relatively to the quantity being used.

[5] = polarographic study of the oxidation potential (Example 30); format: physicochemical; conditions: acetonitrile, lithium perchlorate; calomel electrode; in V (unit assumed)
Description: 261. Polarographic study of the oxidation potential […]
reference electrode: a calomel electrode which contains, as junction liquid, a saturated solution of anhydrous lithium perchlorate working electrode: rotating electrode of vitreous carbon (2500 r.p.m.) counter-electrode: platinum. acetonitrile, having a water content smaller than 0.1% and not presenting any polarographic waves between -2.5 volts and +2.5 volts.
0.1 M solution of lithium perchlorate in acetonitrile, treated and preserved on a molecular screen of 4 A. […]
exploration amplitude: 0 to 2 V exploration speed: 10 mV/sec.

[6] = migration of stabiliser from PVC bottles into water at 50° C.; format: physicochemical; conditions: water 50° C.
Description: 2.2--Study of the migration
The migration or the extractability of the stabiliser from the PVC compound under the effect of various liquids (and particularly water) stored in a plastic container is of essential importance for the use of these stabilisers in the field of food packagings.
as §1
The investigation was particularly developed for water at 50° C. over a period of 2 months, because it represents the important problem regarding the packaging of mineral waters.
Formula for the manufacture of bottles
The S L 2016 is a solution of zinc 2-ethyl hexanoate in a mixture of aromatic hydrocarbons boiling from 158° to 184° C.
as §2, §3, §4

[7] = stabilisation of plasticised polyvinyl chloride resins: mixing at 180° C., pressing at 170° C.; conditions: for Colour stability / Thermal stability: 180° C.
Description: Sheets of polyvinyl chloride, previously mixed for 5 minutes at 180° C., were pressed for 5 minutes at 170° C., and the colour stability and the heat stability after mixing, and then the coloration of the sheets after pressing, were observed.
As adjuvants, as well as the stabiliser to be tested, the resin in question contains wax E, dioctyl phthalate, barium stearate and cadmium stearate, in the following proportions: […]

[8] = resin 5: 0.1, Ba 0.375, Cd 0.375
[9] = resin 7: 0.05, Ba 0.375, Cd 0.15
[10] = resin 9: 0.05, Ba 0.375, Cd 0.05

Oxidation potential [1]: 850 millivolts
Migration ([3]; H2O/NaCl (97:3), 0.3, 1 month): 100 µg/L
Migration ([3]; H2O/NaCl (97:3), 0.3, 2 months): 120 µg/L
Migration ([3]; Heptane, 0.3 pcr, after 36 h): 300 µg/L
Migration ([3]; Heptane, 0.3 pcr, after 84 h): 390 µg/L
Migration ([3]; Water/C2H5OH (50:50), 0.3, 1 month): 250 µg/L
Migration ([3]; Water/C2H5OH (85:15), 0.3, 1 month): 150 µg/L
Migration ([3]; Water/C2H5OH (85:15), 0.3, 2 months): 180 µg/L
Migration ([3]; Water/CH3COOH (50:50), 0.3, 1 month): 150 µg/L
Migration ([3]; Water/CH3COOH (50:50), 0.3, 2 months): 200 µg/L
Migration ([3]; Water/CH3COOH (90:10), 0.3, 1 month): 120 µg/L
Migration ([3]; Water/CH3COOH (90:10), 0.3, 2 months): 140 µg/L
Migration ([3]; Water/CH3COOH (97:3), 0.3, 1 month): 90 µg/L
Migration ([3]; Water/CH3COOH (97:3), 0.3, 2 months): 120 µg/L
Migration ([3]; Water/NaCl/CH3COOH (98,5:0,5:1), 0.3, 1 month): 110 µg/L
Migration ([3]; Water/NaCl/CH3COOH (98,5:0,5:1), 0.3, 2 months): 120 µg/L
Migration ([3]; Water/Sacchrose (90:10), 0.3, 1 month): 100 µg/L
Migration ([3]; Water/Sacchrose (90:10), 0.3, 2 months): 100 µg/L
Migration ([3]; Water/citric acid (98:2), pH 5, 0.3, 1 month): 110 µg/L
Migration ([3]; Water/citric acid (98:2), pH 5, 0.3, 2 months): 130 µg/L
% of sublimed product ([4]; 160° C., 6 hours, nitrogen): 34.2%
sublimation ([4]; of the quantity of product being used): 34%
Oxidation potential [5]: 0.74 ± 0.01
Migration ([6]; 0.15 pct, 1 month): 70 µg/L
Migration ([6]; 0.15 pct, 2 months): 80 µg/L
Migration ([6]; 0.15 pct, 10 days): 15 µg/L
Migration ([6]; 0.15 pct, 20 days): 40 µg/L
Migration ([6]; 0.30 pct, 1 month): 120 µg/L
Migration ([6]; 0.30 pct, 2 months): 120 µg/L
Migration ([6]; 0.30 pct, 10 days): 70 µg/L
Migration ([6]; 0.30 pct, 20 days): 100 µg/L
Colour stability [7, 8]: 50 min
Thermal stability [7, 8]: 50 min
Colour stability [7, 9]: 45 min
Thermal stability [7, 9]: 55 min
Colour stability [7, 10]: 35 min
Thermal stability [7, 10]: 50 min
Structure (SMILES): COC(=O)C1=C(C)NC(C)=C(C(=O)OC)C1 [L.28504, 2,6-Dimethyl-3,5-dicarbomethoxy-1,4-dihydropyridine]
thermostabilisation of copolymer versus 2-phenyl indole [2]: better result than 0.3 p.c.r. of 2-phenyl indole
basic shade and thermal stability ([7]; words): substantially improves the basic shade and clearly increases the thermal stability
